# Laboratory results: patent US4483869A, “Thiocarnitines, process for their preparation and pharmaceutical compositions containing same” (Sigma-Tau Industrie Farmaceutiche Riunite S.p.A., priority 1980, dated 1984)
# Counter-ions that a name gives are not always drawn.
# Key:
# [1] = Acute toxicity in the mouse, Weil's method; conditions: in vivo, ip
# Source text: The acute toxicity of the compounds of general formula (I) has been studied in the mouse with the Weil method (Weil C. S., Biometr. J. 8, 249, 1952).
# The LD50 values of some compounds illustrated in Table I, indicate that the compounds are remarkably well tolerated.
# LD50, mg Kg^-1, ep in mouse of some thiocarnitines of general
# formula (I). Weil's method (N = 5, K = 4) Cl = hydrochloride
# rats = assay: Protection against X-ray exposure in rats (survival after irradiation); type: in vivo, Albino Wister rats; conditions: 20-25 mg Kg^-1 1 hour before irradiation; for Percentage of surviving animals, day 10: 10 days from irradiation, control 90; for Percentage of surviving animals, day 20: 20 days from irradiation, control 20; for Percentage of surviving animals, day 30: 30 days from irradiation, control 10
# Method: The effect of the compounds of formula (I) towards the damages provoked by X-ray exposure was studied.
# The experiment animals, Albino Wister rats, treated with the compounds under examination (20-25 mg Kg^-1 1 hour before irradiation) were irradiated and checked over a time period to detect the onset of toxic effects and the time of survival with respect to the control group. […]
# Protective effect of some thiocarnitines of general
# formula (I) towards the damage provoked by irradiation
# in rats. Percentage of surviving animals at
# various days from irradiation.
# rabbit = assay: Cutaneous regeneration from burns in the rabbit; type: in vivo; conditions: 20 mg Kg^-1 orally once a day for seven days; for Percentage of regenerated tissue, 4th day: control 20; for Percentage of regenerated tissue, 8th day: control 50
# Method: The ability of the compounds of formula (I) to speed up the cutaneous regeneration from burns has been tested in the rabbit.
# A 4 cm^2 cutaneous area of the average-top zone of the test animal back was burned.
# The compounds were orally administered in aqueous solution at the dose of 20 mg Kg^-1 once a day for seven days. The area of cutaneous regeneration i.e. the area of the newly formed tissue, was then measured (Table III).
# Effect of compounds of formula (I) on cutaneous
# regeneration. Percentage of regenerated tissue at the 4th
# and 8th day from treatment.
# [2] = Hygroscopicity and stability to the atmosphere of the isolated product; type: physicochemical; conditions: for hygroscopicity: isolated product
# acetylcholine = assay: Formation of acetylcholine
# [3] = Crossing of the blood-brain barrier
# CoA = assay: Transfer of the acetyl group to CoA / acyl group donor; type: biochemical
# [4] = "ep" route, Weil's method (N = 5, K = 4)
Compound,LD50 [1],"Percentage of surviving animals, day 10 (rats)","Percentage of surviving animals, day 20 (rats)","Percentage of surviving animals, day 30 (rats)","Percentage of regenerated tissue, 4th day (rabbit)","Percentage of regenerated tissue, 8th day (rabbit)","LD50 [1, 4]",hygroscopicity [2],stability upon exposure to the atmosphere ([2]; exposure to the atmosphere),formation of acetylcholine (acetylcholine),ability to cross the blood-brain barrier [3],acyl group donor activity (CoA),transfer of the acetyl group to CoA (CoA; in the absence of CoA carnitine acetyl transferase)
"CCCC(=O)SC(CC(=O)O)C[N+](C)(C)C (centres unmarked) [S--butyryl thiocarnitine Cl, S-butyryl thiocarnitine halogenide]",350 mg/kg,90 Percentage,40 Percentage,40 Percentage,20 Percentage,40 Percentage,–,–,–,–,–,–,–
"CCCC(CCC)C(=O)SC(CC(=O)O)C[N+](C)(C)C (centres unmarked) [S--dipropylacetyl thiocarnitine Cl, S-dipropylacetil thiocarnitine hydrochloride]",350 mg/kg,90 Percentage,70 Percentage,50 Percentage,50 Percentage,100 Percentage,–,–,–,–,–,–,–
"CCC(CC)C(=O)SC(CC(=O)O)C[N+](C)(C)C (centres unmarked) [S--diethylacetyl thiocarnitine Cl, S-diethylacetyl thiocarnitine]",–,80 Percentage,60 Percentage,30 Percentage,50 Percentage,60 Percentage,295 mg/kg,highly hygroscopic,–,–,–,–,–
"C[N+](C)(C)CC(S)CC(=O)O (centres unmarked) [Thiocarnitine, thiocarnitine hydrochloride]",–,95 Percentage,60 Percentage,50 Percentage,40 Percentage,90 Percentage,150 mg/kg,very hygroscopic,darkened upon exposure to the atmosphere,–,–,–,–
"CC(=O)SC(CC(=O)O)C[N+](C)(C)C (centres unmarked) [S--acetyl thiocarnitine Cl, S-acetyl thiocarnitine hydrochloride]",–,100 Percentage,70 Percentage,60 Percentage,50 Percentage,90 Percentage,294 mg/kg,–,–,promotes the formation of acetylcholine,able to cross the blood-brain barrier,potent acyl group donor,able to transfer the acetyl group to CoA directly even in the absence of the enzyme
"CC(O)CC(=O)SC(CC(=O)O)C[N+](C)(C)C (stereo not drawn) [S--hydroxybutyryl thiocarnitine Cl, S-beta hydroxybutyryl thiocarnitine]",–,100 Percentage,80 Percentage,60 Percentage,30 Percentage,60 Percentage,300 mg/kg,very hygroscopic,–,–,–,–,–
"CCC(=O)SC(CC(=O)O)C[N+](C)(C)C (centres unmarked) [S--propionyl thiocarnitine Cl, S-propionyl thiocarnitine halogenide]",302 mg/kg,90 Percentage,70 Percentage,50 Percentage,30 Percentage,70 Percentage,–,–,–,–,–,–,–
